Measurements reported in patent publication US10301664B2, “Repurposing non-antimicrobial drugs and clinical molecules to treat bacterial infections” (Purdue Research Foundation, priority 2015, dated 2019).
In brackets after ≈: the same amount, converted by molar mass. Read-outs that look alike come from different tables or passages of the source. Numbered stars: 1 amine (or outer) side, 2 acyl side, 3 side chain; on linkers, the order of the positions; unused ones are H or OH. Bridge positions count the residues as written; N and C are the ends. Square brackets hold non-standard residues; d marks the D form. Peptide text beside a SMILES is read from it. I, II: the chains in the order shown. Actinocin(9to1) = Cc1c2oc3c(C)ccc(C(=O)[*:1])c3nc-2c(C(=O)[*:2])c(N)c1=O; NMeV = CN[C@H](C(=O)O)C(C)C; Sar = CNCC(=O)O

What was measured:
[1] = system: MRSA USA300; test: Library hits: MIC/MBC against MRSA; assay type: cell-based, Staphylococcus aureus
[2] = system: vancomycin resistant E. faecium ATCC 700221 (VRE); test: Library hits: MIC/MBC against VRE; assay type: cell-based
[3] = system: K. pneumoniae ATCC BAA-1705; test: Library hits: MIC against K. pneumoniae; assay type: cell-based
[4] = system: A. baumannii ATCC BAA-1605; test: Library hits: MIC against A. baumannii; assay type: cell-based
[5] = system: E. cloacae ATCC BAA-1143; test: Library hits: MIC against E. cloacae; assay type: cell-based
[6] = system: P. aeruginosa ATCC 15442; test: Library hits: MIC against P. aeruginosa; assay type: cell-based
[7] = system: MRSA USA300 persister cells tolerant to ciprofloxacin; test: Killing of S. aureus persister cells; assay type: cell-based; conditions: added after ciprofloxacin treatment; 48 h
[8] = system: MRSA USA300; test: Mouse model of MRSA systemic infection (lethal); assay type: in vivo, BALB/c mice; conditions: oral 25 mg/kg once daily, three doses
From the text: For MRSA systemic infection, neutropenic Female BALB/c mice were inoculated IP with 1×10^9 MRSA USA300.

[9] = system: A. baumannii; test: MIC against G-ve with and without colistin: A. baumannii; assay type: cell-based
[10] = system: E.. coli O157:H7; test: MIC against G-ve with and without colistin: E. coli O157:H7; assay type: cell-based; conditions: E. coli O157:H7
[11] = system: S. Typhimurium; test: MIC against G-ve with and without colistin: S. Typhimurium; assay type: cell-based
[12] = system: K. pneumonia; test: MIC against G-ve with and without colistin: K. pneumonia; assay type: cell-based
[13] = system: P. aeruginosa; test: MIC against G-ve with and without colistin: P. aeruginosa; assay type: cell-based
[14] = system: intracellular MRSA; test: Synergy with conventional antimicrobials in infected cell cultures; assay type: cell-based; conditions: compared to monotherapy
[15] = Staphylococcus aureus, read-out: MBC
[16] = Staphylococcus aureus, read-out: MIC

**Q.** `c1ccc(-c2ccc(C(c3ccccc3)n3ccnc3)cc2)cc1` (stereo not drawn) [Bifonazole] was tested. Which MBC [1, 15] did it give?
**A.** > 64 µM

**Q.** What about the MIC [1, 16] of the same molecule?
**A.** 8 µM (≈ 2.48 µg/mL)

**Q.** What about the MIC ([2]; VRE, read-out: MIC) of the same molecule?
**A.** > 16 µM

**Q.** With `CCCCCCCCCOc1ccc2[nH]cc(CCN)c2c1` [5-Nonyloxytryptamine] as the molecule, how does the MBC ([1]; Staphylococcus aureus) read?
**A.** 8 µM (≈ 2.42 µg/mL)

**Q.** What about the MIC ([1]; Staphylococcus aureus) of the same molecule?
**A.** 4 µM (≈ 1.21 µg/mL)

**Q.** And the MIC [2]?
**A.** 8 µM (≈ 2.42 µg/mL)

**Q.** What about the MIC/MBC [3] of the same molecule?
**A.** >16 µM

**Q.** And the MIC/MBC [4]?
**A.** 16 µM (≈ 4.84 µg/mL)

**Q.** What about the MIC/MBC [5] of the same molecule?
**A.** 16 µM (≈ 4.84 µg/mL)

**Q.** And the MIC/MBC [6]?
**A.** >16 µM

**Q.** `O=c1[nH]c(=O)n(C2CCCO2)cc1F` (stereo not drawn) [Ftorafur] was tested. Which MIC [1, 16] did it give?
**A.** > 16 µM

**Q.** And the MIC ([2]; VRE, read-out: MIC)?
**A.** 16 µM (≈ 3.2 µg/mL)

**Q.** What does the source list for `Clc1ccc(COC(Cn2ccnc2)c2ccc(Cl)cc2Cl)c(Cl)c1` (stereo not drawn) [Miconazole]?
**A.** MBC [1, 15]: 8 µM (≈ 3.33 µg/mL); MIC [1, 16]: 4 µM (≈ 1.66 µg/mL); MIC ([2]; VRE, read-out: MIC): > 16 µM

**Q.** What does the source list for `COc1cccc2c1C(=O)c1c(O)c3c(c(O)c1C2=O)C[C@@](O)(C(=O)CO)C[C@@H]3O[C@H]1C[C@H](N)[C@@H](O)[C@H](C)O1` [Epirubicin]?
**A.** MBC [1, 15]: 64 µM (≈ 34.8 µg/mL); MIC [1, 16]: 16 µM (≈ 8.7 µg/mL); MIC ([2]; VRE, read-out: MIC): 8 µM (≈ 4.35 µg/mL)

**Q.** Which results are given for `O=c1[nH]cc(F)c(=O)[nH]1` [5-Fluorouracil]?
**A.** MBC [1, 15]: 16 µM (≈ 2.08 µg/mL); MIC [1, 16]: 4 µM (≈ 0.52 µg/mL); MIC ([2]; VRE, read-out: MIC): > 16 µM

**Q.** Which results are given for `CC(=O)[C@]1(O)Cc2c(O)c3c(c(O)c2[C@@H](O[C@H]2C[C@H](N)[C@H](O)[C@H](C)O2)C1)C(=O)c1ccccc1C3=O` [Idarubicin]?
**A.** MBC [1, 15]: 4 µM (≈ 1.99 µg/mL); MIC [1, 16]: 4 µM (≈ 1.99 µg/mL); MIC ([2]; VRE, read-out: MIC): 4 µM (≈ 1.99 µg/mL)

**Q.** Which results are given for `Cc1nc2ccc(CN(C)c3ccc(C(=O)N[C@@H](CCC(=O)O)C(=O)O)s3)cc2c(=O)[nH]1` [Raltitrexed]?
**A.** MIC [1, 16]: > 16 µM; MIC ([2]; VRE, read-out: MIC): 2 µM (≈ 0.917 µg/mL)

**Q.** Which results are given for `CC(C)NCC(O)c1ccc(O)c(O)c1` (stereo not drawn) [Isoproterenol]?
**A.** MBC [1, 15]: 64 µM (≈ 13.5 µg/mL); MIC [1, 16]: 16 µM (≈ 3.38 µg/mL); MIC ([2]; VRE, read-out: MIC): > 16 µM

**Q.** With `CC(=O)NC[C@H]1CN(c2ccc(N3CCOCC3)c(F)c2)C(=O)O1` [linezolid] as the molecule, how does the “effect on number of planktonic persister cells” value [7] read?
**A.** minimal impact

**Q.** What about the mice survival [8] of the same molecule?
**A.** significantly increased mice survival

**Q.** With `CC(C)c1ccc2c(c1)c(SC(C)(C)C)c(CC(C)(C)C(=O)O)n2Cc1ccc(Cl)cc1` [MK-886] as the molecule, how does the MBC ([1]; MRSA, read-out: MBC) read?
**A.** 16 µM (≈ 7.55 µg/mL)

**Q.** What about the MIC ([1]; MRSA, read-out: MIC) of the same molecule?
**A.** 8 µM (≈ 3.78 µg/mL)

**Q.** And the MIC ([2]; VRE, read-out: MIC)?
**A.** 8 µM (≈ 3.78 µg/mL)

**Q.** Which results are given for `COc1cccc2c1C(=O)c1c(O)c3c(c(O)c1C2=O)C[C@@](O)(C(C)=O)C[C@@H]3O[C@H]1C[C@H](N)[C@H](O)[C@H](C)O1` [Daunorubicin]?
**A.** MBC ([1]; Staphylococcus aureus): 16 µM (≈ 8.44 µg/mL); MIC ([1]; Staphylococcus aureus): 16 µM (≈ 8.44 µg/mL); MIC [2]: 8 µM (≈ 4.22 µg/mL)

**Q.** With `CCCCCCNC(=O)n1cc(F)c(=O)[nH]c1=O` [Carmofur] as the molecule, how does the MBC [1, 15] read?
**A.** 4 µM (≈ 1.03 µg/mL)

**Q.** And the MIC [1, 16]?
**A.** 2 µM (≈ 0.515 µg/mL)

**Q.** What about the MIC ([2]; VRE, read-out: MIC) of the same molecule?
**A.** > 16 µM

**Q.** With `Clc1ccc(CO/N=C(\Cn2ccnc2)c2ccc(Cl)cc2Cl)c(Cl)c1` [Oxiconazole] as the molecule, how does the MBC [1, 15] read?
**A.** 32 µM (≈ 13.7 µg/mL)

**Q.** How did the MBC [1, 15] turn out when `Clc1ccc(COC(Cn2ccnc2)c2ccc(Cl)cc2Cl)cc1` (stereo not drawn) [Econazole] was run?
**A.** 32 µM (≈ 12.2 µg/mL)

**Q.** And the MIC [1, 16]?
**A.** 4 µM (≈ 1.53 µg/mL)

**Q.** And the MIC ([2]; VRE, read-out: MIC)?
**A.** > 16 µM

**Q.** Which MBC [1, 15] does the source give for `CCN(CC)CCOc1ccc(C(=C(Cl)c2ccccc2)c2ccccc2)cc1` [Clomid] here?
**A.** 32 µM (≈ 13 µg/mL)

**Q.** What about the MIC [1, 16] of the same molecule?
**A.** 16 µM (≈ 6.5 µg/mL)

**Q.** And the MIC ([2]; VRE, read-out: MIC)?
**A.** 16 µM (≈ 6.5 µg/mL)

**Q.** Which results are given for `CN(C)CCOc1ccc(/C(=C(/CCCl)c2ccccc2)c2ccccc2)cc1` [Toremifene]?
**A.** MBC [1, 15]: 16 µM (≈ 6.5 µg/mL); MIC [1, 16]: 16 µM (≈ 6.5 µg/mL); MIC ([2]; VRE, read-out: MIC): 16 µM (≈ 6.5 µg/mL)

**Q.** Which results are given for `Clc1ccccc1C(c1ccccc1)(c1ccccc1)n1ccnc1` [Clotrimazole]?
**A.** MBC [1, 15]: 64 µM (≈ 22.1 µg/mL); MIC [1, 16]: 4 µM (≈ 1.38 µg/mL); MIC ([2]; VRE, read-out: MIC): > 16 µM

**Q.** Which MIC [1, 16] does the source give for `NS(=O)(=O)c1cc(C(=O)O)c(NCc2ccco2)cc1Cl` [Furosemide] here?
**A.** > 16 µM

**Q.** What about the MIC ([2]; VRE, read-out: MIC) of the same molecule?
**A.** 4 µM (≈ 1.32 µg/mL)

**Q.** With `CC/C(=C(\c1ccccc1)c1ccc(OCCN(C)C)cc1)c1ccccc1` [Tamoxifen] as the molecule, how does the MBC [1, 15] read?
**A.** 16 µM (≈ 5.94 µg/mL)

**Q.** What about the MIC [1, 16] of the same molecule?
**A.** 16 µM (≈ 5.94 µg/mL)

**Q.** What about the MIC ([2]; VRE, read-out: MIC) of the same molecule?
**A.** > 16 µM

**Q.** Which results are given for `CC(=O)Nc1nnc(S(N)(=O)=O)s1` [Acetazolamide]?
**A.** MIC [1, 16]: > 16 µM; MIC ([2]; VRE, read-out: MIC): 1 µM (≈ 0.222 µg/mL)

**Q.** With `C=C[C@]1(C)C[C@@H](OC(=O)CS[C@@H]2C[C@H]3CC[C@@H](C2)N3C)[C@]2(C)[C@H](C)CC[C@]3(CCC(=O)[C@H]32)[C@@H](C)[C@@H]1O` [retapamulin] as the molecule, how does the “effect on number of planktonic persister cells” value [7] read?
**A.** minimal impact

**Q.** For colistin, which MICs of colistin [9] is on record?
**A.** 0.25 µg/mL

**Q.** What about the MICs of colistin [10] of the same molecule?
**A.** 0.25 µg/mL

**Q.** And the MICs of colistin [11]?
**A.** 1 µg/mL

**Q.** And the MICs of colistin [12]?
**A.** 0.25 µg/mL

**Q.** What about the MICs of colistin [13] of the same molecule?
**A.** 0.5 µg/mL

**Q.** For `CC[C@H]1OC(=O)[C@H](C)[C@@H](O[C@H]2C[C@@](C)(OC)[C@@H](O)[C@H](C)O2)[C@H](C)[C@@H](O[C@@H]2O[C@H](C)C[C@H](N(C)C)[C@H]2O)[C@](C)(O)C[C@@H](C)C(=O)[C@H](C)[C@@H](O)[C@]1(C)O` [erythromycin], which “activity when combined with Auranofin and Ebselen in infected cell cultures” value [14] is on record?
**A.** synergistic activity

**Q.** How did the MBC [1, 15] turn out when `CSc1nc2cc(Cl)c(Oc3cccc(Cl)c3Cl)cc2[nH]1` [Triclabendazole] was run?
**A.** 32 µM (≈ 11.5 µg/mL)

**Q.** What about the MIC [1, 16] of the same molecule?
**A.** 8 µM (≈ 2.88 µg/mL)

**Q.** And the MIC ([2]; VRE, read-out: MIC)?
**A.** > 16 µM

**Q.** What does the source list for `Cc1c2oc3c(C)ccc(C(=O)N[C@@H]4C(=O)N[C@H](C(C)C)C(=O)N5CCC[C@H]5C(=O)N(C)CC(=O)N(C)[C@@H](C(C)C)C(=O)O[C@@H]4C)c3nc-2c(C(=O)N[C@@H]2C(=O)N[C@H](C(C)C)C(=O)N3CCC[C@H]3C(=O)N(C)CC(=O)N(C)[C@@H](C(C)C)C(=O)O[C@@H]2C)c(N)c1=O` [Dactinomycin] (I: T[dV]P[Sar][NMeV] / II: T[dV]P[Sar][NMeV]; ester I:1-I:C, II:1-II:C; linker I:N-II:N via Actinocin(9to1))?
**A.** MIC ([1]; Staphylococcus aureus): > 16 µM; MIC [2]: 0.5 µM (≈ 0.628 µg/mL)
